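Dose response: 5 concentrations. Exposure: 48 h. Format: 96-well plates. Endpoint: linear interpolation; highest concentration if not reached. At the GI50, growth is halved.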 Activity calls are given as the source filed them. Cut-off read from the data, not from the text of the source: active = GI50 up to about 1.1 µM and inactive = higher.
What was measured:
Assay in all cases: NCI anticancer screen, dose series, 48 h
SK-MEL-28 = test system: SK-MEL-28
HT-29 = test system: HT-29
DLD-1 = test system: DLD-1
SW-620 = test system: SW-620
UO-31 = test system: UO-31
MOLT-4 = test system: MOLT-4
A549 = test system: A549
SNB-75 = test system: SNB-75
HOP-62 = test system: HOP-62
SNB-78 = test system: SNB-78
M19-MEL = test system: M19-MEL
LOX IMVI = test system: LOX IMVI
M14 = test system: M14
ACHN = test system: ACHN
IGROV-1 = test system: IGROV-1
SNB-19 = test system: SNB-19
TK-10 = test system: TK-10
Malme-3M = test system: Malme-3M
OVCAR-8 = test system: OVCAR-8
OVCAR-4 = test system: OVCAR-4
LXFL 529 = test system: LXFL 529
SR = test system: SR
HCC 2998 = test system: HCC 2998
HCT-116 = test system: HCT-116
K562 = test system: K562
KM12 = test system: KM12
HL-60 = test system: HL-60
A498 = test system: A498
RPMI-8226 = test system: RPMI-8226
UACC-62 = test system: UACC-62
HOP-92 = test system: HOP-92
CAKI-1 = test system: CAKI-1
KM-20L2 = test system: KM-20L2
OVCAR-3 = test system: OVCAR-3
OVCAR-5 = test system: OVCAR-5
EKVX = test system: EKVX
U-251 = test system: U-251
SK-MEL-2 = test system: SK-MEL-2
NCI-H226 = test system: NCI-H226
SK-OV-3 = test system: SK-OV-3
CCRF-CEM = test system: CCRF-CEM
COLO 205 = test system: COLO 205
UACC-257 = test system: UACC-257
XF498 = test system: XF498
HCT-15 = test system: HCT-15
SF-268 = test system: SF-268
NCI-H23 = test system: NCI-H23
NCI-H460 = test system: NCI-H460
SF-539 = test system: SF-539
RXF 393 = test system: RXF 393
SF-295 = test system: SF-295
DMS-114 = test system: DMS-114
786-0 = test system: 786-0
SK-MEL-5 = test system: SK-MEL-5
NCI-H522 = test system: NCI-H522
HOP-18 = test system: HOP-18
SN12C = test system: SN12C
DMS-273 = test system: DMS-273

CC1CC(=O)C(CC(=O)O)C1C(C(=O)C(=O)Nc1c(C#N)cccc1[N+](=O)[O-])[N+](=O)[O-] (stereo not drawn)
GI50 (SK-MEL-28): > 100 µM (inactive)
GI50 (HT-29): > 100 µM (inactive)
GI50 (DLD-1): > 100 µM (inactive)
GI50 (SW-620): > 100 µM (inactive)
GI50 (UO-31): 57.3 µM (inactive)
GI50 (MOLT-4): > 100 µM (inactive)
GI50 (A549): > 100 µM (inactive)
GI50 (SNB-75): > 100 µM (inactive)
GI50 (HOP-62): > 100 µM (inactive)
GI50 (SNB-78): 80.4 µM (inactive)
GI50 (M19-MEL): > 100 µM (inactive)
GI50 (LOX IMVI): > 100 µM (inactive)
GI50 (M14): > 100 µM (inactive)
GI50 (ACHN): > 100 µM (inactive)
GI50 (IGROV-1): > 100 µM (inactive)
GI50 (SNB-19): > 100 µM (inactive)
GI50 (TK-10): > 100 µM (inactive)
GI50 (Malme-3M): > 100 µM (inactive)
GI50 (OVCAR-8): > 100 µM (inactive)
GI50 (OVCAR-4): > 100 µM (inactive)
GI50 (LXFL 529): > 100 µM (inactive)
GI50 (SR): > 100 µM (inactive)
GI50 (HCC 2998): > 100 µM (inactive)
GI50 (HCT-116): > 100 µM (inactive)
GI50 (K562): > 100 µM (inactive)
GI50 (KM12): > 100 µM (inactive)
GI50 (HL-60): > 100 µM (inactive)
GI50 (A498): > 100 µM (inactive)
GI50 (RPMI-8226): > 100 µM (inactive)
GI50 (UACC-62): > 100 µM (inactive)
GI50 (HOP-92): 82.2 µM (inactive)
GI50 (CAKI-1): > 100 µM (inactive)
GI50 (KM-20L2): > 100 µM (inactive)
GI50 (OVCAR-3): > 100 µM (inactive)
GI50 (OVCAR-5): > 100 µM (inactive)
GI50 (EKVX): > 100 µM (inactive)
GI50 (U-251): > 100 µM (inactive)
GI50 (SK-MEL-2): > 100 µM (inactive)
GI50 (NCI-H226): > 100 µM (inactive)
GI50 (SK-OV-3): > 100 µM (inactive)
GI50 (CCRF-CEM): > 100 µM (inactive)
GI50 (COLO 205): > 100 µM (inactive)
GI50 (UACC-257): > 100 µM (inactive)
GI50 (XF498): > 100 µM (inactive)
GI50 (HCT-15): > 100 µM
GI50 (SF-268): > 100 µM (inactive)
GI50 (NCI-H23): > 100 µM (inactive)
GI50 (NCI-H460): > 100 µM (inactive)
GI50 (SF-539): > 100 µM (inactive)
GI50 (RXF 393): > 100 µM (inactive)
GI50 (SF-295): > 100 µM (inactive)
GI50 (DMS-114): > 100 µM (inactive)
GI50 (786-0): > 100 µM (inactive)
GI50 (SK-MEL-5): > 100 µM (inactive)

NC(=O)C12C3C4C1C1C2C3C41C(N)=O (stereo not drawn)
GI50 (SK-MEL-28): > 100 µM (inactive)
GI50 (HT-29): > 100 µM (inactive)
GI50 (NCI-H522): > 100 µM (inactive)
GI50 (DLD-1): > 100 µM (inactive)
GI50 (SW-620): > 100 µM (inactive)
GI50 (UO-31): > 100 µM (inactive)
GI50 (MOLT-4): > 100 µM (inactive)
GI50 (A549): > 100 µM (inactive)
GI50 (HOP-18): > 100 µM (inactive)
GI50 (SNB-75): > 100 µM (inactive)
GI50 (HOP-62): > 100 µM (inactive)
GI50 (M19-MEL): > 100 µM (inactive)
GI50 (LOX IMVI): > 100 µM (inactive)
GI50 (M14): > 100 µM (inactive)
GI50 (ACHN): > 100 µM (inactive)
GI50 (IGROV-1): > 100 µM (inactive)
GI50 (SNB-19): > 100 µM (inactive)
GI50 (TK-10): > 100 µM (inactive)
GI50 (OVCAR-8): > 100 µM (inactive)
GI50 (OVCAR-4): > 100 µM (inactive)
GI50 (LXFL 529): > 100 µM (inactive)
GI50 (HCC 2998): > 100 µM (inactive)
GI50 (HCT-116): > 100 µM (inactive)
GI50 (K562): > 100 µM (inactive)
GI50 (KM12): > 100 µM (inactive)
GI50 (HL-60): > 100 µM (inactive)
GI50 (A498): > 100 µM (inactive)
GI50 (RPMI-8226): > 100 µM (inactive)
GI50 (UACC-62): > 100 µM (inactive)
GI50 (HOP-92): > 100 µM (inactive)
GI50 (SN12C): > 100 µM (inactive)
GI50 (CAKI-1): > 100 µM (inactive)
GI50 (DMS-273): > 100 µM (inactive)
GI50 (KM-20L2): > 100 µM (inactive)
GI50 (OVCAR-3): > 100 µM (inactive)
GI50 (OVCAR-5): > 100 µM (inactive)
GI50 (EKVX): > 100 µM (inactive)
GI50 (U-251): > 100 µM (inactive)
GI50 (SK-MEL-2): > 100 µM (inactive)
GI50 (NCI-H226): > 100 µM (inactive)
GI50 (SK-OV-3): > 100 µM (inactive)
GI50 (CCRF-CEM): > 100 µM (inactive)
GI50 (COLO 205): > 100 µM (inactive)
GI50 (UACC-257): > 100 µM (inactive)
GI50 (HCT-15): > 100 µM
GI50 (SF-268): > 100 µM (inactive)
GI50 (NCI-H23): > 100 µM (inactive)
GI50 (NCI-H460): > 100 µM (inactive)
GI50 (SF-539): > 100 µM (inactive)
GI50 (RXF 393): > 100 µM (inactive)
GI50 (SF-295): > 100 µM (inactive)
GI50 (DMS-114): > 100 µM (inactive)
GI50 (786-0): > 100 µM (inactive)
GI50 (SK-MEL-5): > 100 µM (inactive)
